# Results as given in patent publication US9695155B2, “Herbicidal substituted pyrimidinyloxy benzene compounds” (E. I. DU PONT DE NEMOURS AND COMPANY, priority 2013, dated 2017).
# Legend:
# [1] = system: barnyardgrass; experiment: Test B flooded paddy test; format: in vivo, Echinochloa crus-galli; conditions: Flood, 250 g ai/ha; 0 to 100 scale where 0 is no effect and 100 is complete control
# How it was run: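 Seedlings are raised to two leaves, flooded to a depth of 3 cm and dosed by adding the compound to the floodwater. Water level is kept constant, and plants are scored visually versus controls 13–15 days later (0 = no effect, 100 = complete control).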
# [2] = system: Heteranthera limosa; experiment: Test B flooded paddy test; format: in vivo; conditions: Flood, 250 g ai/ha; 0 to 100 scale where 0 is no effect and 100 is complete control
# Procedure: (§1) Plant species in the flooded paddy test selected from rice (Oryza sativa), sedge, umbrella (small-flower umbrella sedge, Cyperus difformis), (Heteranthera limosa), and barnyardgrass (Echinochloa crus-galli) were grown to the 2-leaf stage for testing. At time of treatment, test pots were flooded to 3 cm above the soil surface, treated by application of test compounds directly to the paddy water, and then maintained at that water depth for the duration of the test. Treated plants and controls were maintained in a greenhouse for 13 to 15 days, after which time all species were compared to controls and visually evaluated. Plant response ratings, summarized in Table B, are based on a scale of 0 to 100 where 0 is no effect and 100 is complete control. A dash (-) response means no test result.
# [3] = system: corn; experiment: Test A postemergence; format: in vivo, Zea mays
# How it was run: (§2)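 Compounds in non-phytotoxic solvent with surfactant applied as soil spray preemergence, or postemergence to plants 2-10 cm at one- to two-leaf stage, in loam/sand. After approximately 10 days in greenhouse, injury rated visually versus untreated controls, 0 (no effect) to 100 (complete control).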
# [4] = system: morningglory; experiment: Test A preemergence; format: in vivo, Ipomoea spp.
# How it was run: as §2
# [5] = system: velvetleaf; experiment: Test A postemergence; format: in vivo, Abutilon theophrasti
# How it was run: as §2
# [6] = system: giant foxtail; experiment: Test A preemergence; format: in vivo, Setaria faberii
# How it was run: as §2
# [7] = system: wheat; experiment: Test A preemergence; format: in vivo, Triticum aestivum
# How it was run: as §2
# [8] = system: barnyardgrass; experiment: Test A preemergence; format: in vivo, Echinochloa crus-galli
# How it was run: as §2
# [9] = system: morningglory; experiment: Test A postemergence; format: in vivo, Ipomoea spp.
# How it was run: as §2
# [10] = system: wheat; experiment: Test A postemergence; format: in vivo, Triticum aestivum
# How it was run: as §2
# [11] = system: large (Lg) crabgrass; experiment: Test A preemergence; format: in vivo, Digitaria sanguinalis
# How it was run: as §2
# [12] = system: velvetleaf; experiment: Test A preemergence; format: in vivo, Abutilon theophrasti
# How it was run: as §2
# [13] = system: sedge, umbrella; experiment: Test B flooded paddy test; format: in vivo, Cyperus difformis; conditions: Flood, 250 g ai/ha; 0 to 100 scale where 0 is no effect and 100 is complete control
# Procedure: as §1
# [14] = system: rice; experiment: Test B flooded paddy test; format: in vivo, Oryza sativa; conditions: Flood, 250 g ai/ha; 0 to 100 scale where 0 is no effect and 100 is complete control
# Procedure: as §1
# [15] = system: corn; experiment: Test A preemergence; format: in vivo, Zea mays
# How it was run: as §2
# [16] = system: barnyardgrass; experiment: Test A postemergence; format: in vivo, Echinochloa crus-galli
# How it was run: as §2
# [17] = system: pigweed; experiment: Test A preemergence; format: in vivo, Amaranthus retroflexus
# How it was run: as §2
# [18] = system: pigweed; experiment: Test A postemergence; format: in vivo, Amaranthus retroflexus
# How it was run: as §2
# [19] = system: giant foxtail; experiment: Test A postemergence; format: in vivo, Setaria faberii
# How it was run: as §2
# [20] = system: large (Lg) crabgrass; experiment: Test A postemergence; format: in vivo, Digitaria sanguinalis
# How it was run: as §2
# [21] = 125 g ai/ha, 0 to 100 scale where 0 is no effect and 100 is complete control
# [22] = 500 g ai/ha, 0 to 100 scale, 0 no effect, 100 complete control
# [23] = 500 g ai/ha, 0 to 100 scale, 0 no effect, 100 complete control, approx. 10 days
# [24] = 500 g ai/ha, 0 to 100 scale where 0 is no effect and 100 is complete control
structure (smiles),measurement,setting,value
FC(F)(F)c1cnc(Oc2ccccc2-n2cc(C(F)(F)F)cn2)nc1 [Compound 17],"Plant response rating, Barnyardgrass",[1],0
same,"Plant response rating, Ducksalad",[2],75
same,"Plant response rating, Corn",[3]; [21],0
same,"Plant response rating, Corn",[3]; [22],40
same,Morningglory plant response rating,[4]; [21],0
same,Morningglory plant response rating,[4]; [23],20
same,"Plant response rating, Velvetleaf",[5]; [21],50
same,"Plant response rating, Velvetleaf",[5]; [22],100
same,"Foxtail, Giant plant response rating",[6]; [21],60
same,"Foxtail, Giant plant response rating",[6]; [23],90
same,Wheat plant response rating,[7]; [21],0
same,Wheat plant response rating,[7]; [23],70
same,Barnyardgrass plant response rating,[8]; [21],50
same,Barnyardgrass plant response rating,[8]; [23],60
same,"Plant response rating, Morningglory",[9]; [21],20
same,"Plant response rating, Morningglory",[9]; [22],50
same,"Plant response rating, Wheat",[10]; [21],0
same,"Plant response rating, Wheat",[10]; [22],50
same,"Crabgrass, Large plant response rating",[11]; [21],40
same,"Crabgrass, Large plant response rating",[11]; [23],90
same,Velvetleaf plant response rating,[12]; [21],70
same,Velvetleaf plant response rating,[12]; [23],90
same,"Plant response rating, Sedge, Umbrella",[13],90
same,"Plant response rating, Rice",[14],25
same,Corn plant response rating,[15]; [21],0
same,Corn plant response rating,[15]; [23],0
same,"Plant response rating, Barnyardgrass",[16]; [21],0
same,"Plant response rating, Barnyardgrass",[16]; [22],20
same,Pigweed plant response rating,[17]; [21],100
same,Pigweed plant response rating,[17]; [23],100
same,"Plant response rating, Pigweed",[18]; [21],70
same,"Plant response rating, Pigweed",[18]; [22],100
same,"Plant response rating, Foxtail, Giant",[19]; [21],20
same,"Plant response rating, Foxtail, Giant",[19]; [22],90
same,"Plant response rating, Crabgrass, Large",[20]; [21],20
same,"Plant response rating, Crabgrass, Large",[20]; [22],90
O=Cc1cccc(Oc2ncc(Br)cn2)c1-n1cc(C(F)(F)F)cn1 [Compound 161],"Plant response rating, Barnyardgrass",[1],0
same,"Plant response rating, Ducksalad",[2],0
same,Corn plant response rating,[3]; [21],0
same,"Plant response rating, Corn",[3]; [24],0
same,"Plant response rating, Morningglory",[4]; [21],0
same,Morningglory plant response rating,[4]; [24],0
same,Velvetleaf plant response rating,[5]; [21],10
same,"Plant response rating, Velvetleaf",[5]; [24],20
same,"Plant response rating, Foxtail, Giant",[6]; [21],0
same,"Foxtail, Giant plant response rating",[6]; [24],0
same,"Plant response rating, Wheat",[7]; [21],0
same,Wheat plant response rating,[7]; [24],0
same,"Plant response rating, Barnyardgrass",[8]; [21],0
same,Barnyardgrass plant response rating,[8]; [24],10
same,Morningglory plant response rating,[9]; [21],0
same,"Plant response rating, Morningglory",[9]; [24],0
same,Wheat plant response rating,[10]; [21],0
same,"Plant response rating, Wheat",[10]; [24],0
same,"Plant response rating, Crabgrass, Large",[11]; [21],0
same,"Crabgrass, Large plant response rating",[11]; [24],0
same,"Plant response rating, Velvetleaf",[12]; [21],10
same,Velvetleaf plant response rating,[12]; [24],20
same,"Plant response rating, Sedge, Umbrella",[13],0
same,"Plant response rating, Rice",[14],0
same,"Plant response rating, Corn",[15]; [21],0
same,Corn plant response rating,[15]; [24],0
same,Barnyardgrass plant response rating,[16]; [21],0
same,"Plant response rating, Barnyardgrass",[16]; [24],0
same,"Plant response rating, Pigweed",[17]; [21],90
same,Pigweed plant response rating,[17]; [24],100
same,Pigweed plant response rating,[18]; [21],50
same,"Plant response rating, Pigweed",[18]; [24],80
same,"Foxtail, Giant plant response rating",[19]; [21],0
same,"Plant response rating, Foxtail, Giant",[19]; [24],0
same,"Crabgrass, Large plant response rating",[20]; [21],0
same,"Plant response rating, Crabgrass, Large",[20]; [24],0
Cc1ccc(Oc2ncc(Cl)cn2)c(-n2cc(Br)cn2)c1Br [Compound 202],"Plant response rating, Barnyardgrass",[1],0
same,"Plant response rating, Ducksalad",[2],30
same,Corn plant response rating,[3]; [21],0
same,"Plant response rating, Corn",[3]; [24],0
same,Morningglory plant response rating (0 to 100 scale),[4]; 125 g ai/ha,0
same,Morningglory plant response rating,[4]; [24],0
same,Velvetleaf plant response rating,[5]; [21],50
same,"Plant response rating, Velvetleaf",[5]; [24],70
same,"Foxtail, Giant plant response rating (0 to 100 scale)",[6]; 125 g ai/ha,10
same,"Foxtail, Giant plant response rating",[6]; [24],70
same,Wheat plant response rating (0 to 100 scale),[7]; 125 g ai/ha,0
same,Wheat plant response rating,[7]; [24],0
same,"Barnyardgrass plant response rating (0 to 100 scale, 0 is no effect, 100 is complete control)",[8]; 125 g ai/ha,0
same,Barnyardgrass plant response rating,[8]; [24],10
same,Morningglory plant response rating,[9]; [21],0
same,"Plant response rating, Morningglory",[9]; [24],20
same,Wheat plant response rating,[10]; [21],0
same,"Plant response rating, Wheat",[10]; [24],0
same,"Crabgrass, Large plant response rating (0 to 100 scale)",[11]; 125 g ai/ha,40
same,"Crabgrass, Large plant response rating",[11]; [24],70
same,Velvetleaf plant response rating (0 to 100 scale),[12]; 125 g ai/ha,0
same,Velvetleaf plant response rating,[12]; [24],0
same,"Plant response rating, Sedge, Umbrella",[13],10
same,"Plant response rating, Rice",[14],0
same,Corn plant response rating (0 to 100 scale),[15]; 125 g ai/ha,0
same,Corn plant response rating,[15]; [24],0
same,Barnyardgrass plant response rating,[16]; [21],0
same,"Plant response rating, Barnyardgrass",[16]; [24],0
same,Pigweed plant response rating (0 to 100 scale),[17]; 125 g ai/ha,0
same,Pigweed plant response rating,[17]; [24],0
same,Pigweed plant response rating,[18]; [21],30
same,"Plant response rating, Pigweed",[18]; [24],50
same,"Foxtail, Giant plant response rating",[19]; [21],10
same,"Plant response rating, Foxtail, Giant",[19]; [24],30
same,"Crabgrass, Large plant response rating",[20]; [21],10
same,"Plant response rating, Crabgrass, Large",[20]; [24],50
